Experimental data published in patent US12146004B2, “Polymyxin compounds and uses thereof” (priority 2014, dated 2024).
≈ marks a conversion by molar mass, not a printed value. Bridge positions count the residues as written; N and C are the ends. Square brackets hold non-standard residues; d marks the D form. Peptide text beside a SMILES is read from it. * marks the point of attachment. X14 = CC(C)c1ccc(CO[C@@H](CCN)C(=O)*)cc1; X10 = NC[C@H](OCc1ccc(Cl)cc1)C(=O)*; X29 = Cc1ccc(CO[C@@H](CN)C(=O)*)cc1; X26 = NCC[C@H](OCC1CCCCC1)C(=O)*; X27 = NCCC(C(=O)*)c1cccc(Cl)c1; dCha = N[C@H](CC1CCCCC1)C(=O)O; X28 = NCCC(C(=O)*)c1ccccc1Cl; X15 = NCCC(CC1CCCC1)C(=O)*; X19 = NCCC(C(=O)*)C1CCCCC1; Dab = NCC[C@H](N)C(=O)O; Dap = NC[C@H](N)C(=O)O

Legend:
Assay type in all cases: cell-based
Pseudomonas aeruginosa = system: Pseudomonas aeruginosa
In short: (§1)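 MIC (μg/mL) by susceptibility testing against up to nine strains per species, including strains with elevated Polymyxin MICs and resistant isolates.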

Klebsiella pneumoniae = system: Klebsiella pneumoniae
In short: as §1

Acinetobacter baumannii = system: Acinetobacter baumannii
In short: as §1

Escherichia coli = system: Escherichia coli
In short: as §1

## CC(C)C[C@@H]1NC(=O)[C@@H](CC2CCCCC2)NC(=O)[C@H](CCN)NC(=O)[C@@H](NC(=O)[C@H](CCN)NC(=O)[C@@H](NC(=O)C(CCN)c2ccccc2Cl)[C@@H](C)O)CCNC(=O)[C@H]([C@@H](C)O)NC(=O)[C@H](CCN)NC(=O)[C@H](CCN)NC1=O (stereo partly drawn) [Example 77, 4-amino-2-(2-chlorophenyl) butanoyl polymyxin [D-cyclohexylalanine]-6 nonapeptide] (X28-T[Dab][Dab][Dab][dCha]L[Dab][Dab]T; lactam 3-C)
Pseudomonas aeruginosa
  MIC P. aeruginosa ATCC 27853: 0.5 µg/mL (≈ 0.429 µM)
  MIC P. aeruginosa CCUG 59347: 0.5 µg/mL (≈ 0.429 µM)
Klebsiella pneumoniae
  MIC K. pneumoniae 065: 8 µg/mL (≈ 6.87 µM)
  MIC K. pneumoniae ATCC 13882: 0.5 µg/mL (≈ 0.429 µM)
Acinetobacter baumannii
  MIC A. baumanii ATCC BAA-747: 1 µg/mL (≈ 0.858 µM)
  MIC A. baumanii NCTC 13424: 0.5 µg/mL (≈ 0.429 µM)
Escherichia coli
  MIC E. coli 058: 8 µg/mL (≈ 6.87 µM)
  MIC E. coli ATCC 25922: 0.25 µg/mL (≈ 0.215 µM)

## Cc1ccc(CO[C@@H](CN)C(=O)N[C@H](C(=O)N[C@@H](CN)C(=O)N[C@H]2CCNC(=O)[C@H]([C@@H](C)O)NC(=O)[C@H](CCN)NC(=O)[C@H](CCN)NC(=O)[C@H](CC(C)C)NC(=O)[C@@H](CC3CCCCC3)NC(=O)[C@H](CCN)NC2=O)[C@@H](C)O)cc1 [Example 78, (S)-3-amino-2-((4-methylbenzyl)oxy) propanoyl L-Thr-L-Dap-polymyxin [D-cyclohexylalanine]-6 heptapeptide] (X29-T[Dap][Dab][Dab][dCha]L[Dab][Dab]T; lactam 3-C)
Pseudomonas aeruginosa
  MIC P. aeruginosa ATCC 27853: 0.25 µg/mL (≈ 0.218 µM)
  MIC P. aeruginosa CCUG 59347: 0.25 µg/mL (≈ 0.218 µM)
Klebsiella pneumoniae
  MIC K. pneumoniae ATCC 13882: 0.25 µg/mL (≈ 0.218 µM)
Acinetobacter baumannii
  MIC A. baumanii ATCC BAA-747: 0.25 µg/mL (≈ 0.218 µM)
  MIC A. baumanii NCTC 13424: 0.06 µg/mL (≈ 0.0523 µM)
Escherichia coli
  MIC E. coli 058: 4 µg/mL (≈ 3.49 µM)
  MIC E. coli ATCC 25922: 0.25 µg/mL (≈ 0.218 µM)

## CC(C)C[C@@H]1NC(=O)[C@@H](CC2CCCCC2)NC(=O)[C@H](CCN)NC(=O)[C@@H](NC(=O)[C@H](CN)NC(=O)[C@@H](NC(=O)C(CCN)c2cccc(Cl)c2)[C@@H](C)O)CCNC(=O)[C@H]([C@@H](C)O)NC(=O)[C@H](CCN)NC(=O)[C@H](CCN)NC1=O (stereo partly drawn) [Example 79, 4-Amino-2-(3-chlorophenyl) butanoyl L-Thr-L-Dap-polymyxin [D-cyclohexylalanine]-6 heptapeptide.] (X27-T[Dap][Dab][Dab][dCha]L[Dab][Dab]T; lactam 3-C)
Pseudomonas aeruginosa
  MIC P. aeruginosa ATCC 27853: 0.5 µg/mL (≈ 0.434 µM)
  MIC P. aeruginosa CCUG 59347: 0.5 µg/mL (≈ 0.434 µM)
Klebsiella pneumoniae
  MIC K. pneumoniae 065: 2 µg/mL (≈ 1.74 µM)
  MIC K. pneumoniae ATCC 13882: 0.5 µg/mL (≈ 0.434 µM)
Acinetobacter baumannii
  MIC A. baumanii ATCC BAA-747: 0.25 µg/mL (≈ 0.217 µM)
  MIC A. baumanii NCTC 13424: 0.25 µg/mL (≈ 0.217 µM)
Escherichia coli
  MIC E. coli 058: 2 µg/mL (≈ 1.74 µM)
  MIC E. coli ATCC 25922: 0.5 µg/mL (≈ 0.434 µM)

## CC(C)C[C@@H]1NC(=O)[C@@H](CC2CCCCC2)NC(=O)[C@H](CCN)NC(=O)[C@@H](NC(=O)[C@H](CN)NC(=O)[C@@H](NC(=O)[C@H](CN)OCc2ccc(Cl)cc2)[C@@H](C)O)CCNC(=O)[C@H]([C@@H](C)O)NC(=O)[C@H](CCN)NC(=O)[C@H](CCN)NC1=O [Example 81, (S)-3-amino-2-((4-chlorobenzyl)oxy) propanoyl L-Thr-L-Dap-polymyxin [D-cyclohexylalanine-6]heptapeptide] (X10-T[Dap][Dab][Dab][dCha]L[Dab][Dab]T; lactam 3-C)
Pseudomonas aeruginosa
  MIC P. aeruginosa 068: 2 µg/mL (≈ 1.71 µM)
  MIC P. aeruginosa 070: 2 µg/mL (≈ 1.71 µM)
  MIC P. aeruginosa ATCC 27853: 0.125 µg/mL (≈ 0.107 µM)
  MIC P. aeruginosa CCUG 59347: 0.25 µg/mL (≈ 0.214 µM)
Klebsiella pneumoniae
  MIC K. pneumoniae 063: 16 µg/mL (≈ 13.7 µM)
  MIC K. pneumoniae 065: 4 µg/mL (≈ 3.43 µM)
  MIC K. pneumoniae ATCC 4352: 0.25 µg/mL (≈ 0.214 µM)
  MIC K. pneumoniae ATCC 13882: 0.125 µg/mL (≈ 0.107 µM)
Acinetobacter baumannii
  MIC A. baumanii 053: 32 µg/mL (≈ 27.4 µM)
  MIC A. baumanii 056: 8 µg/mL (≈ 6.86 µM)
  MIC A. baumanii ATCC BAA-747: 0.125 µg/mL (≈ 0.107 µM)
  MIC A. baumanii NCTC 13424: 0.125 µg/mL (≈ 0.107 µM)
Escherichia coli
  MIC E. coli 058: 1 µg/mL (≈ 0.857 µM)
  MIC E. coli 061: 16 µg/mL (≈ 13.7 µM)
  MIC E. coli ATCC 25922: 0.125 µg/mL (≈ 0.107 µM)
  MIC E. coli NCTC 9001: 0.03 µg/mL (≈ 0.0257 µM)

## CC(C)C[C@@H]1NC(=O)[C@@H](CC2CCCCC2)NC(=O)[C@H](CCN)NC(=O)[C@@H](NC(=O)[C@H](CCN)NC(=O)[C@@H](NC(=O)C(CCN)CC2CCCC2)[C@@H](C)O)CCNC(=O)[C@H]([C@@H](C)O)NC(=O)[C@H](CCN)NC(=O)[C@H](CCN)NC1=O (stereo partly drawn) [Example 83, 4-amino-2-(cyclopentylmethyl) butanoyl polymyxin [D-cyclohexylalanine-6]nonapeptide] (X15-T[Dab][Dab][Dab][dCha]L[Dab][Dab]T; lactam 3-C)
Pseudomonas aeruginosa
  MIC P. aeruginosa 068: 2 µg/mL (≈ 1.76 µM)
  MIC P. aeruginosa 070: 8 µg/mL (≈ 7.04 µM)
  MIC P. aeruginosa ATCC 27853: 0.25 µg/mL (≈ 0.22 µM)
  MIC P. aeruginosa CCUG 59347: 0.25 µg/mL (≈ 0.22 µM)
Klebsiella pneumoniae
  MIC K. pneumoniae 063: 16 µg/mL (≈ 14.1 µM)
  MIC K. pneumoniae 065: 1 µg/mL (≈ 0.88 µM)
  MIC K. pneumoniae ATCC 13882: 0.25 µg/mL (≈ 0.22 µM)
Acinetobacter baumannii
  MIC A. baumanii 053: >64 µg/mL
  MIC A. baumanii 056: 64 µg/mL (≈ 56.3 µM)
  MIC A. baumanii ATCC BAA-747: 0.125 µg/mL (≈ 0.11 µM)
  MIC A. baumanii NCTC 13424: 0.06 µg/mL (≈ 0.0528 µM)
Escherichia coli
  MIC E. coli 058: 4 µg/mL (≈ 3.52 µM)
  MIC E. coli 061: 16 µg/mL (≈ 14.1 µM)
  MIC E. coli ATCC 25922: 0.5 µg/mL (≈ 0.44 µM)
  MIC E. coli NCTC 9001: 0.06 µg/mL (≈ 0.0528 µM)

## CC(C)C[C@@H]1NC(=O)[C@@H](CC2CCCCC2)NC(=O)[C@H](CCN)NC(=O)[C@@H](NC(=O)[C@H](CN)NC(=O)[C@@H](NC(=O)[C@H](CCN)OCC2CCCCC2)[C@@H](C)O)CCNC(=O)[C@H]([C@@H](C)O)NC(=O)[C@H](CCN)NC(=O)[C@H](CCN)NC1=O [Example 84, (S)-4-amino-2-(cyclohexyl-methoxy) butanoyl L-Thr-L-Dap-polymyxin [D-cyclohexylalanine-6]heptapeptide.] (X26-T[Dap][Dab][Dab][dCha]L[Dab][Dab]T; lactam 3-C)
Pseudomonas aeruginosa
  MIC P. aeruginosa 070: 8 µg/mL (≈ 6.94 µM)
  MIC P. aeruginosa ATCC 27853: 0.25 µg/mL (≈ 0.217 µM)
  MIC P. aeruginosa CCUG 59347: 0.5 µg/mL (≈ 0.434 µM)
Klebsiella pneumoniae
  MIC K. pneumoniae 063: 32 µg/mL (≈ 27.8 µM)
  MIC K. pneumoniae 065: 4 µg/mL (≈ 3.47 µM)
  MIC K. pneumoniae ATCC 13882: 0.25 µg/mL (≈ 0.217 µM)
Acinetobacter baumannii
  MIC A. baumanii 053: >32 µg/mL
  MIC A. baumanii 056: 32 µg/mL (≈ 27.8 µM)
  MIC A. baumanii ATCC BAA-747: 0.25 µg/mL (≈ 0.217 µM)
  MIC A. baumanii NCTC 13424: 0.25 µg/mL (≈ 0.217 µM)
Escherichia coli
  MIC E. coli 058: 8 µg/mL (≈ 6.94 µM)
  MIC E. coli 061: 8 µg/mL (≈ 6.94 µM)
  MIC E. coli ATCC 25922: 0.125 µg/mL (≈ 0.108 µM)

## CC(C)C[C@@H]1NC(=O)[C@@H](CC2CCCCC2)NC(=O)[C@H](CCN)NC(=O)[C@@H](NC(=O)[C@H](CN)NC(=O)[C@@H](NC(=O)C(CCN)C2CCCCC2)[C@@H](C)O)CCNC(=O)[C@H]([C@@H](C)O)NC(=O)[C@H](CCN)NC(=O)[C@H](CCN)NC1=O (stereo partly drawn) [Example 85, 4-amino-2-cyclohexylbutanoyl L-Thr-L-Dap-polymyxin [D-cyclohexylalanine-6]heptapeptide.] (X19-T[Dap][Dab][Dab][dCha]L[Dab][Dab]T; lactam 3-C)
Pseudomonas aeruginosa
  MIC P. aeruginosa 068: 2 µg/mL (≈ 1.78 µM)
  MIC P. aeruginosa 070: 4 µg/mL (≈ 3.56 µM)
  MIC P. aeruginosa ATCC 27853: 0.5 µg/mL (≈ 0.445 µM)
  MIC P. aeruginosa CCUG 59347: 0.5 µg/mL (≈ 0.445 µM)
Klebsiella pneumoniae
  MIC K. pneumoniae 063: 8 µg/mL (≈ 7.13 µM)
  MIC K. pneumoniae 065: 0.5 µg/mL (≈ 0.445 µM)
  MIC K. pneumoniae ATCC 13882: 0.5 µg/mL (≈ 0.445 µM)
Acinetobacter baumannii
  MIC A. baumanii 053: 64 µg/mL (≈ 57 µM)
  MIC A. baumanii 056: 64 µg/mL (≈ 57 µM)
  MIC A. baumanii ATCC BAA-747: 0.125 µg/mL (≈ 0.111 µM)
  MIC A. baumanii NCTC 13424: 0.125 µg/mL (≈ 0.111 µM)
Escherichia coli
  MIC E. coli 058: 4 µg/mL (≈ 3.56 µM)
  MIC E. coli 061: 16 µg/mL (≈ 14.3 µM)
  MIC E. coli ATCC 25922: 0.125 µg/mL (≈ 0.111 µM)
  MIC E. coli NCTC 9001: 0.06 µg/mL (≈ 0.0535 µM)

## CC(C)C[C@@H]1NC(=O)[C@@H](CC2CCCCC2)NC(=O)[C@H](CCN)NC(=O)[C@@H](NC(=O)[C@H](CN)NC(=O)[C@@H](NC(=O)[C@H](CCN)OCc2ccc(C(C)C)cc2)[C@@H](C)O)CCNC(=O)[C@H]([C@@H](C)O)NC(=O)[C@H](CCN)NC(=O)[C@H](CCN)NC1=O [Example 88, (S)-4-amino-2-((4-isopropylbenzyl)oxy)butanoyl L-Thr-L-Dap-polymyxin [D-cyclohexylalanine-6]heptapeptide] (X14-T[Dap][Dab][Dab][dCha]L[Dab][Dab]T; lactam 3-C)
Pseudomonas aeruginosa
  MIC P. aeruginosa 068: 4 µg/mL (≈ 3.37 µM)
  MIC P. aeruginosa 070: 4 µg/mL (≈ 3.37 µM)
  MIC P. aeruginosa ATCC 27853: 0.25 µg/mL (≈ 0.21 µM)
  MIC P. aeruginosa CCUG 59347: 0.5 µg/mL (≈ 0.421 µM)
Klebsiella pneumoniae
  MIC K. pneumoniae 063: 64 µg/mL (≈ 53.9 µM)
  MIC K. pneumoniae 065: 0.5 µg/mL (≈ 0.421 µM)
  MIC K. pneumoniae ATCC 13882: 0.25 µg/mL (≈ 0.21 µM)
Acinetobacter baumannii
  MIC A. baumanii 053: 64 µg/mL (≈ 53.9 µM)
  MIC A. baumanii 056: 32 µg/mL (≈ 26.9 µM)
  MIC A. baumanii ATCC BAA-747: 0.25 µg/mL (≈ 0.21 µM)
  MIC A. baumanii NCTC 13424: 0.125 µg/mL (≈ 0.105 µM)
Escherichia coli
  MIC E. coli 058: 2 µg/mL (≈ 1.68 µM)
  MIC E. coli 061: 16 µg/mL (≈ 13.5 µM)
  MIC E. coli ATCC 25922: 0.25 µg/mL (≈ 0.21 µM)
  MIC E. coli NCTC 9001: 0.25 µg/mL (≈ 0.21 µM)
